Source: the supplement of paper PMC10307832

What was measured:
Experiment in all cases: relative viability (nuclei count vs DMSO), 5 days (fraction); higher = more cells survive
GW-2580 + Olaparib = compound: COC1=CC=C(C=C1)COC2=C(C=C(C=C2)CC3=CN=C(N=C3N)N)OC [GW-2580] + O=C(c1cc(Cc2n[nH]c(=O)c3ccccc23)ccc1F)N1CCN(C(=O)C2CC2)CC1 [Olaparib] (partner 8 µM)
Method in brief: (§1)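 A single step with final 0.05% Triton X-100, 1% formaldehyde and 1 ug/ml Hoechst fixed the cells and stained nuclei 5 days after treatment. Lung cancer cell lines in 1536-well plates had been treated by pin tool the day after seeding with one drug alone or a fixed anchor-drug dose plus five library-drug doses (not always all listed) in √10 steps, and nuclei were counted on 4× images. Relative viability is the ratio of nuclei in treated wells to nuclei in vehicle wells, taken as the median of duplicate plates.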

Fedratinib + Trametinib = compound: Cc1cnc(Nc2ccc(OCCN3CCCC3)cc2)nc1Nc1cccc(S(=O)(=O)NC(C)(C)C)c1 [Fedratinib] + CC(=O)Nc1cccc(-n2c(=O)n(C3CC3)c(=O)c3c(Nc4ccc(I)cc4F)n(C)c(=O)c(C)c32)c1 [Trametinib] (partner 0.02 µM)
Method in brief: as §1

Fedratinib + OSI-027 = compound: Cc1cnc(Nc2ccc(OCCN3CCCC3)cc2)nc1Nc1cccc(S(=O)(=O)NC(C)(C)C)c1 [Fedratinib] + COc1cccc2cc(-c3nc([C@H]4CC[C@H](C(=O)O)CC4)n4ncnc(N)c34)[nH]c12 [OSI-027] (partner 0.5 µM)
Method in brief: as §1

GW-2580 + Phenformin = compound: COC1=CC=C(C=C1)COC2=C(C=C(C=C2)CC3=CN=C(N=C3N)N)OC [GW-2580] + N=C(N)NC(=N)NCCc1ccccc1 [Phenformin] (partner 250 µM)
Method in brief: as §1

Fedratinib + Crizotinib = compound: Cc1cnc(Nc2ccc(OCCN3CCCC3)cc2)nc1Nc1cccc(S(=O)(=O)NC(C)(C)C)c1 [Fedratinib] + C[C@@H](Oc1cc(-c2cnn(C3CCNCC3)c2)cnc1N)c1c(Cl)ccc(F)c1Cl [Crizotinib] (partner 1 µM)
Method in brief: as §1

Cell Line	relative viability (GW-2580 + Olaparib; first compound 0.08 µM)	relative viability (GW-2580 + Olaparib; first compound 2.53 µM)	relative viability (GW-2580 + Olaparib; first compound 8 µM)	relative viability (Fedratinib + Trametinib; first compound 0.1 µM)	relative viability (Fedratinib + Trametinib; first compound 0.3162 µM)	relative viability (Fedratinib + Trametinib; first compound 1 µM)	relative viability (Fedratinib + OSI-027; first compound 0.1 µM)	relative viability (Fedratinib + OSI-027; first compound 0.3162 µM)	relative viability (Fedratinib + OSI-027; first compound 1 µM)	relative viability (GW-2580 + Phenformin; first compound 0.08 µM)	relative viability (GW-2580 + Phenformin; first compound 0.8 µM)	relative viability (GW-2580 + Phenformin; first compound 2.53 µM)	relative viability (GW-2580 + Phenformin; first compound 8 µM)	relative viability (GW-2580 + Olaparib; first compound 0.8 µM)	relative viability (Fedratinib + Crizotinib; first compound 0.1 µM)	relative viability (Fedratinib + Crizotinib; first compound 0.3162 µM)	relative viability (Fedratinib + Crizotinib; first compound 1 µM)
NCI-H1648	1.34	0.666	0.764	0.383	0.441	0.43	0.221	0.263	0.269								
SK-MES-1	0.79	0.603	0.777	0.547	0.581	0.476	0.544	0.6	0.436	0.748	0.608	0.515	0.528	0.795	1.04	0.992	0.923
HCC-366	0.379	0.387	0.417	0.363	0.36	0.257	0.802	0.886	0.849	0.682	0.573	0.595	0.546	0.526	0.21	0.5	0.416
201T	0.896	0.887	0.794	0.697	0.769	0.718	0.698	0.613	0.588	0.466	0.418	0.461	0.433	0.73	1.01	1.04	0.99
HCC-827	0.692	0.632	0.617	0.515	0.567	0.503	0.817	0.812	0.915	0.451	0.442	0.436	0.447	0.642	0.985	0.963	0.953
NCI-H647	0.776	0.444	0.71	0.521	0.493	0.366	0.625	0.697	0.444	0.605	0.623	0.401	0.661	0.667	1.06	1.09	0.584
NCI-H2023	0.541	0.457	0.511	0.588	0.626	0.488	0.393	0.394	0.328	0.466	0.423	0.336	0.382	0.589	0.585	0.715	0.58
NCI-H520	0.3	0.337	0.342	0.476	0.801	0.63	0.255	0.253	0.216	0.79	0.59	0.592	0.587	0.416	0.716	0.703	0.594
RERF-LC-KJ	1	0.888	0.861	0.787	0.813	0.858	0.533	0.602	0.48	0.435	0.418	0.445	0.395	1.04	0.834	0.883	0.786
A-427	0.76	0.756	0.737	0.633	0.649	0.627	0.444	0.498	0.118	0.407	0.258	0.303	0.269	0.711	0.802	0.755	0.686
NCI-H441	0.644	0.555	0.585	0.348	0.345	0.301	0.443	0.625	0.511	0.997	0.852	0.773	1.05	0.582	0.65	0.623	0.619
NCI-H1703	0.418	0.412	0.363											0.43	0.629	0.51	0.533
NCI-H1792	0.596	0.255	0.44	0.365	0.364	0.449	0.607	0.808	0.748	0.4	0.226	0.146	0.313	0.929	1.26	0.972	0.854
Calu-6	0.657	0.559	0.636											0.663	0.753	0.701	0.677
SK-LU-1	0.431	0.389	0.503	0.498	0.454	0.479	0.307	0.35	0.289	0.559	0.731	0.383	0.537	0.497		0.836	0.584
PC-3 [JPC-3]	1.12	1.03	1.15	0.561	0.757	0.655	0.776	0.801	0.764	0.472	0.489	0.489	0.464	1.26	0.998	0.944	0.985
EMC-BAC-2	0.477	0.429	0.462	0.931	0.939	0.978	0.323	0.387	0.351	0.558	0.501	0.416	0.493	0.514	0.615	0.73	0.7
LK-2	0.625	0.612	0.775	0.799	0.8	0.605	0.157	0.184	0.16	0.37	0.544	0.318	0.391	0.732		0.187	0.214
NCI-H2126	1.02	0.793	0.851	0.493	0.582	0.541	0.757	0.736	0.704	0.52	0.535	0.543	0.526	0.942	1.01	0.989	0.996
NCI-H3122	0.682	0.675	0.648	0.242	0.205	0.193	0.911	0.918	0.854	0.41	0.366	0.339	0.341	0.739	0.317	0.235	0.265
NCI-H1975	0.815	0.874	0.806	0.344	0.234	0.304	0.729	0.833	0.602	0.44	0.43	0.414	0.418	0.864	0.802	0.928	0.663

Cell Line	relative viability (GW-2580 + Olaparib; first compound 0.08 µM)	relative viability (GW-2580 + Olaparib; first compound 2.53 µM)	relative viability (GW-2580 + Olaparib; first compound 8 µM)	relative viability (Fedratinib + Trametinib; first compound 0.1 µM)	relative viability (Fedratinib + Trametinib; first compound 0.3162 µM)	relative viability (Fedratinib + Trametinib; first compound 1 µM)	relative viability (Fedratinib + OSI-027; first compound 0.1 µM)	relative viability (Fedratinib + OSI-027; first compound 0.3162 µM)	relative viability (Fedratinib + OSI-027; first compound 1 µM)	relative viability (GW-2580 + Phenformin; first compound 0.08 µM)	relative viability (GW-2580 + Phenformin; first compound 0.8 µM)	relative viability (GW-2580 + Phenformin; first compound 2.53 µM)	relative viability (GW-2580 + Phenformin; first compound 8 µM)	relative viability (GW-2580 + Olaparib; first compound 0.8 µM)	relative viability (Fedratinib + Crizotinib; first compound 0.1 µM)	relative viability (Fedratinib + Crizotinib; first compound 0.3162 µM)	relative viability (Fedratinib + Crizotinib; first compound 1 µM)
NCI-H1944	0.427	0.378	0.399	0.448	0.422	0.42	0.343	0.413	0.344	0.198	0.201	0.169	0.189	0.432	1.12	1.09	1.04
LU99A	0.259	0.261	0.269	0.577	0.593	0.477	0.254	0.328	0.272	0.773	0.823	0.647	0.808	0.264	0.427	0.618	0.509
SW 1573	0.477	0.492	0.543	0.489	0.538	0.402	0.564	0.635	0.394	0.334	0.383	0.401	0.4	0.474	0.747	0.733	0.709
NCI-H2347	0.538	0.54	0.595	0.252	0.27	0.27	0.292	0.428	0.497	0.423	0.482	0.241	0.47	0.616	0.721	0.667	0.679
NCI-H2009	0.752	0.918	0.645	0.204	0.286	0.216	0.529	0.632	0.455	0.509	0.45	0.409	0.423	0.698	1.04	0.977	0.884
HCC-15	0.841	0.66	0.75	0.393	0.365	0.357	0.499	0.705	0.576	0.537	0.486	0.426	0.515	0.628	0.839	0.762	0.71
HCC-44	1.04	1.04	1.03	1.15	1.01	1.11	0.482	0.544	0.362	0.181	0.153	0.183	0.253	1.05	0.797	0.756	0.85
COR-L23	0.422	0.294	0.406	0.576	0.604	0.155	0.741	0.714	0.596	0.458	0.53	0.478	0.463	0.375	0.55	0.526	0.486
HCC-78	0.818	0.757	0.861	0.677	0.776	0.938	0.366	0.381	0.362	0.743	0.655	0.543	0.583	0.919	0.346		0.305
NCI-H1299	1.05	0.922	0.876											0.965	0.884	0.946	0.94
ABC-1	0.774	1.43	0.824				0.607	0.467	0.448	0.236	0.226	0.234	0.224	0.634	0.566	1.1	0.769
NCI-H1793	0.892	0.822	0.804	0.493	0.399	0.416	0.237	0.271	0.234	0.4	0.259	0.314	0.286	1.02			
SW 900	0.864	0.994	0.747	0.748	0.802	0.798	0.522	0.539	0.35	0.856	0.632	0.472	0.633	1.03			
NCI-H1563							0.742	0.812	0.754	0.69	0.679	0.647	0.637		0.898	0.893	0.842
A549	0.396	0.267	0.301							0.19	0.193	0.105	0.0849	0.527	0.638	0.609	0.687
NCI-H2342	0.397	0.382	0.382	0.858	1.1	1.01	0.615	0.65	0.559	0.57	0.725	0.509	0.567	0.59			
NCI-H1623							0.438	0.48	0.38	0.566	0.587	0.463	0.566				
NCI-H522	0.623	0.611	0.602	0.675	0.62	0.681	0.629	0.825	0.566	0.659	0.638	0.959	0.754	0.608			
NCI-H1395	0.426	0.489	0.425	0.979	0.962	0.814	0.553	0.694	0.545	0.452	0.484	0.421	0.438	0.427			
IA-LM	0.844	0.853	0.756											1	0.805	0.589	0.736
EBC-1	0.837	0.664	0.59											0.734	0.184	0.213	0.185
